Assay results: EPA's ToxValDB 9.5 (doi:10.2903/j.efsa.2014.3913)

How the values were obtained:
[1] = tested on: Daphnia magna; settings: chronic/long-term; duration: 21 days
[2] = tested on: Oryctolagus sp.; settings: reproduction developmental; organ weight
[3] = tested on: Anas platyrhynchos
[4] = tested on: Neomysis kadiakensis
[5] = tested on: Hypoaspis aculeifer; settings: chronic/long-term
[6] = tested on: Cyprinodon variegatus
[7] = tested on: Chironomus tentans; settings: chronic/long-term; duration: 28 days
[8] = tested on: Colinus virginianus; settings: for LD50: acute, oral, mortality
[9] = tested on: Rattus norvegicus; settings: acute; mortality
[10] = tested on: Tagia sp.
[11] = tested on: Poephila guttata; settings: acute; oral; unspecified; mortality
[12] = tested on: Folsomia candida; settings: chronic/long-term
[13] = tested on: Apis mellifera; settings: acute, mortality
[14] = tested on: Bibionidae; settings: chronic/long-term; duration: 28 days
[15] = acute, duration: 96 hours, mortality
[16] = chronic/long-term, duration: 28 days

## COC(=O)c1nc(-c2ccc(Cl)c(OC)c2F)cc(N)c1Cl [Halauxifen-methyl]
[1]
  NOEC: 0.144 mg/L
[2]
  NOAEL: 5.78 mg/kg-day
[3]; reproductive, reproduction
  NOAEL: 160 mg/kg-day
[3]; short-term, oral, feed, mortality
  LD50: > 2090 mg/kg-day
[4]; [15]
  LC50: > 1.3 µg/mL
[4]; [16]
  NOEC: 0.152 mg/L
[5]
  NOEC: 12.5 mg/kg
[6]; [15]
  LC50: > 1.33 µg/mL
[6]; [16]
  NOEC: 0.0115 mg/L
[7]
  NOEC: 89.3 mg/kg
[8]; diet
  LD50: > 1330 mg/kg-day
[8]
  LD50: > 2250 mg/kg
[8]; reproduction developmental, reproduction
  NOAEL: 36.9 mg/kg-day
[9]
  LD50: > 5000 mg/kg
[10]; acute, duration: 14 days, mortality
  LC50: > 500 mg/kg
[10]; chronic/long-term, duration: 8 weeks
  NOEC: 5 mg/kg
[11]
  LD50: > 2250 mg/kg
[12]
  NOEC: 500 mg/kg
[13]; dermal
  LD50: > 98.1 µg/piece
[13]; oral, unspecified
  LD50: > 108 µg/piece
[14]
  NOEC: 1.26 mg/L
